Source: the NIST ThermoML archive (doi:10.1021/je200213h)

Test: xn = mol fraction of the nth substance listed
Conditions: 101 kPa, Liquid, Capillary tube (Ostwald / Ubbelohde) method

CC(C)CCl [1-chloro-2-methylpropane] + CCC(C)CC
kinematic viscosity [m2/s]
Conditions	283.15 K	298.15 K	313.15 K
x2 = 0.0522	5.703e-07	4.87e-07	4.322e-07
x2 = 0.1013	5.618e-07	4.823e-07	4.275e-07
x2 = 0.2024	5.464e-07	4.717e-07	4.187e-07
x2 = 0.3032	5.324e-07	4.631e-07	4.113e-07
x2 = 0.4028	5.212e-07	4.55e-07	4.048e-07
x2 = 0.5056	5.115e-07	4.484e-07	3.994e-07
x2 = 0.604	5.043e-07	4.43e-07	3.951e-07
x2 = 0.7018	4.988e-07	4.396e-07	3.918e-07
x2 = 0.8002	4.949e-07	4.37e-07	3.896e-07
x2 = 0.898	4.93e-07	4.357e-07	3.881e-07
x2 = 0.9486	4.927e-07	4.355e-07	3.879e-07

CCC(C)(C)C [2,2-dimethylbutane] + CCC(C)Cl
kinematic viscosity [m2/s]
Conditions	283.15 K	298.15 K	313.15 K
x1 = 0.0448	5.266e-07	4.621e-07	4.07e-07
x1 = 0.0993	5.3e-07	4.64e-07	4.086e-07
x1 = 0.2003	5.356e-07	4.679e-07	4.12e-07
x1 = 0.301	5.421e-07	4.719e-07	4.157e-07
x1 = 0.3993	5.494e-07	4.761e-07	4.2e-07
x1 = 0.4989	5.579e-07	4.815e-07	4.251e-07
x1 = 0.6039	5.683e-07	4.88e-07	4.309e-07
x1 = 0.7002	5.793e-07	4.949e-07	4.368e-07
x1 = 0.8033	5.935e-07	5.036e-07	4.438e-07
x1 = 0.9028	6.07e-07	5.122e-07	4.508e-07
x1 = 0.9518	6.147e-07	5.165e-07	4.546e-07

CCC(C)(C)C [2,2-dimethylbutane] + CC(C)CCl
kinematic viscosity [m2/s]
Conditions	283.15 K	298.15 K	313.15 K
x1 = 0.0487	5.82e-07	4.94e-07	4.366e-07
x1 = 0.0994	5.816e-07	4.941e-07	4.365e-07
x1 = 0.1995	5.814e-07	4.939e-07	4.362e-07
x1 = 0.2985	5.821e-07	4.939e-07	4.363e-07
x1 = 0.3993	5.834e-07	4.942e-07	4.366e-07
x1 = 0.5018	5.866e-07	4.958e-07	4.38e-07
x1 = 0.6011	5.899e-07	4.986e-07	4.402e-07
x1 = 0.6985	5.953e-07	5.025e-07	4.439e-07
x1 = 0.7995	6.024e-07	5.071e-07	4.476e-07
x1 = 0.8988	6.115e-07	5.13e-07	4.524e-07
x1 = 0.9479	6.158e-07	5.163e-07	4.542e-07

CCC(C)(C)C [2,2-dimethylbutane] + CCCCCl
kinematic viscosity [m2/s]
Conditions	283.15 K	298.15 K	313.15 K
x1 = 0.0524	5.594e-07	4.802e-07	4.231e-07
x1 = 0.101	5.603e-07	4.809e-07	4.239e-07
x1 = 0.1995	5.627e-07	4.822e-07	4.253e-07
x1 = 0.3081	5.663e-07	4.846e-07	4.275e-07
x1 = 0.3985	5.705e-07	4.867e-07	4.294e-07
x1 = 0.499	5.76e-07	4.898e-07	4.322e-07
x1 = 0.5984	5.822e-07	4.943e-07	4.362e-07
x1 = 0.7015	5.899e-07	5e-07	4.409e-07
x1 = 0.7986	5.992e-07	5.063e-07	4.463e-07
x1 = 0.9002	6.098e-07	5.133e-07	4.52e-07
x1 = 0.9487	6.16e-07	5.17e-07	4.55e-07

CC(C)(C)Cl [2-chloro-2-methylpropane] + CCC(C)CC
kinematic viscosity [m2/s]
Conditions	283.15 K	298.15 K	313.15 K
x2 = 0.0496	6.755e-07	5.548e-07	4.681e-07
x2 = 0.0995	6.538e-07	5.4e-07	4.576e-07
x2 = 0.2046	6.148e-07	5.14e-07	4.4e-07
x2 = 0.3023	5.848e-07	4.937e-07	4.256e-07
x2 = 0.405	5.592e-07	4.767e-07	4.14e-07
x2 = 0.5064	5.394e-07	4.637e-07	4.051e-07
x2 = 0.6033	5.235e-07	4.536e-07	3.984e-07
x2 = 0.7038	5.114e-07	4.462e-07	3.933e-07
x2 = 0.8012	5.026e-07	4.41e-07	3.9e-07
x2 = 0.9018	4.964e-07	4.377e-07	3.881e-07
x2 = 0.9514	4.946e-07	4.372e-07	3.88e-07

CCC(C)(C)C [2,2-dimethylbutane] + CC(C)(C)Cl
kinematic viscosity [m2/s]
Conditions	283.15 K	298.15 K	313.15 K
x1 = 0.0499	6.937e-07	5.657e-07	4.748e-07
x1 = 0.1017	6.864e-07	5.592e-07	4.715e-07
x1 = 0.1983	6.729e-07	5.493e-07	4.664e-07
x1 = 0.3004	6.6e-07	5.405e-07	4.607e-07
x1 = 0.399	6.491e-07	5.333e-07	4.568e-07
x1 = 0.4989	6.399e-07	5.275e-07	4.538e-07
x1 = 0.6017	6.32e-07	5.225e-07	4.522e-07
x1 = 0.7034	6.27e-07	5.2e-07	4.518e-07
x1 = 0.8	6.228e-07	5.18e-07	4.519e-07
x1 = 0.8967	6.221e-07	5.184e-07	4.541e-07
x1 = 0.9504	6.224e-07	5.19e-07	4.556e-07
